In patent publication US9987329B2, “Methods for treating peripheral nerve damage” (Cornell University, priority 2014, dated 2018):

How the values were obtained:
[1] = tested on: Human corneal limbal epithelial (HCLE) cells; test: In vitro scratch wound assay; assay type: cell-based; conditions: 10 ng/ml
Experimental: Human corneal limbal epithelial (HCLE) cells were cultured in 6-well plates until confluency as described. Pan, Z., Fukuoka et al., FASEB J. 27, 2756-2767 (2013). Cells were starved in KSFM medium (gibco 10724-011) without supplements for 24 h. Then a straight-line scratch mark was made in each well with a 200 ul pipette tip. KSFM medium supplemented with VEGF-B^186 (50 ng/ml) or EGF (10 ng/ml, Millipore 01-101) was added to the wells. Scratch areas were imaged at 0, 8, 24 and 48 hours at the same locations using the mark and find module of the Axiovision software and the wound closure analyzed by Photoshop.

[2] = tested on: trigeminal ganglion (TG) neuronal cells; test: Inhibition of VEGF-B induced neurite growth in TG neurons; assay type: cell-based, mouse; conditions: 3 days
Experimental: (§1) Trigeminal ganglion (TG) neuronal cells were obtained and cultured as described previously. Pan, Z., Fukuoka et al., FASEB J. 27, 2756-2767 (2013). To evaluate the effect of VEGF-B on neuronal growth, TG neuronal cells were treated with 10-100 ng/ml recombinant mouse VEGF-B^186 (R&D 767-VE-010). The VEGF-B treatments were replenished every other day. Neurite formation and growth was followed up to 3 days. […] VEGF receptors were inhibited by using neutralizing antibodies against VEGFR1 (R&D AF471), VEGFR2 (R&D MAB4431) and Neuropilin 1 (NRP1) (R&D MAB566). TG cells were incubated in a dose dependent manner with anti-VEGFR1, anti-VEGFR2 or anti-NRP1 for 1 hour prior to the addition of 50 ng/ml VEGF-B. The tyrosine kinase domains of VEGFR2 were inhibited with specific inhibitors by incubating TG neuronal cells with 10 μM SU 1498 (Sigma T4192) or 5 nM Ki 8751 (Sigma K1265) for 1 hr before adding 50 ng/ml VEGF-B. All neurite growth was imaged with an AxioObserver Z1 fluorescence microscope in the YFP channel attached to an AxioCam HRm digital camera (Zeiss) operated by AxioVision 4.0 software. Images were analyzed using Neurolucida 9 (MBF Bioscience) a quantitative nerve tracing software.

[3] = tested on: corneal nerves of Thy-1-YFP mice; test: Corneal nerve regeneration with combinations of VEGF-A and VEGF-B; assay type: in vivo, mouse; conditions: ligand administered separately, two weeks post-injury (FIG. 14)
Experimental: Thy-1-YFP mice were subjected to cornea epithelium debridement to ablate the superficial nerve endings that innervate the cornea Immediately after injury, the mice were treated with different combinations of VEGF-A and VEGF-B. As shown, combinations of VEGF ligands induce greater nerve regeneration in vivo.
The observed effects were also recapitulated in vivo. Thy-1-YFP neurofluorescent mice were used to induce a corneal epithelium injury that results in ablation of the superficial nerve endings of the cornea. The mice were then treated with different combinations of VEGF-A and VEGF-B, and nerve regeneration was analyzed after two weeks post-injury.

[4] = tested on: trigeminal ganglion (TG) neuronal cells; test: Trigeminal ganglion neuronal growth assay; assay type: cell-based, mouse; conditions: 50 ng/ml, three days in culture (FIG. 2A)
Experimental: as §1

EGF: epidermal growth factor (Millipore 01-101), a known inducer of epithelial cell proliferation
time of complete confluence of the scratch area [1]: 24 h | time to complete closure of the scratch area [1]: < 24 h | onset of cell growth into the scratch area ([1]; post-treatment): 8 h

COc1cc2nccc(Oc3ccc(NC(=O)Nc4ccc(F)cc4F)c(F)c3)c2cc1OC [Ki 8751]
inhibition of VEGF-B induced neurite growth ([2]; 5 nM, 1 hr before 50 ng/ml VEGF-B): does not block

CC(C)c1cc(/C=C(\C#N)C(=O)NCCCc2ccccc2)cc(C(C)C)c1O [SU 1498]
inhibition of VEGF-B induced neurite growth ([2]; 10 μM, 1 hr before 50 ng/ml VEGF-B): does not block

B1: soluble VEGFR1: recombinant human-soluble VEGFR1 (sVEGFR1/sFlt1, CellSciences CRF103) (protein)
chain: SKLKDPELSLKGTQHIMQAGQTLHLQCRGEAAHKWSLPEMVSKESERLSITKSACGRNGKQFCSTLTLNTAQANHTGFYSCKYLAVPTSKKKETESAIYIFISDTGRPFVEMYSEIPEIIHMTEGRELVIPCRVTSPNITVTLKKFPLDTLIPDGKRIIWDSRKGFIISNATYKEIGLLTCEATVNGHLYKTNYLTHRQTNTIIDVQISTPRPVKLLRGHTLVLNCTATTPLNTRVQMTWSYPDEKNKRASVRRRIDQSNSHANIFYSVLTIDKMQNKDKGLYTCRVRSGPSFKSVNTSVHIYDKAFITVKHRKQQVLETVAGKRSYRLSMKVKAFPSPEVVWLKDGLPATEKSARYLTRGYSLIIKDVTEEDAGNYTILLSIKQSNVFKNLTATLIVNVKPQIYEKAVSSFPDPALYPLGSRQILTCTAYGIPQPTIKWFWHPCNHNHSEARCDFCSNNEESFILDADSNMGNRIESITQRMAIIEGKNKMASTLVVADSRISGIYICIASNKVGTVGRNISFYITDVPNGFHVNLEKMPTEGEDLKLSCTVNKFLYRDVTWILLRTVNNRTMHYSISKQKMAITKEHSITLNLTIMNVSLQDSGTYACRARNVYTGEEILQKKEITIRGEHCNKKAVFSRISKFKSTRNDCTTQSNVKH
inhibition of VEGF-B induced neurite growth ([2]; equal molar concentration (2.6 nM) with 50 ng/ml VEGF-B): inhibited

B2: VEGF-A: vascular endothelial growth factor A; 232 amino acid protein, NextProt NX_P15692, SEQ ID NO. 2 (protein, listed as Homo sapiens)
chain: MNFLLSWVHWSLALLLYLHVKFMDVYQRSYCHPIETLVDIFQEYPDEIEYIFKPSCVPLMRCGGCCNDEGLECVPTEESNITMQIMRIKPHQGQHIGEMSFLQHNKCECRPKKDRARQEKKSVRGKGKGQKRKRKKSRYKSWSVYVGARCCLMPWSLPGPHPCGPCSERRKHLFVQDPQTCKCSCKNTDSRCKARQLELNERTCRCDKPRRHAKWSQAAPMAEGGGQNHHEV
nerve regeneration [3]: induced greater nerve regeneration | pattern of neurite growth (elongation and branching) [4]: mainly neurite elongation with few branching nodes
